Each structure is given as a SMILES string. A value given as a limit tells only on which side of the number the result lay.

The target of this assay is T1, human TLR9 (Homo sapiens, UniProt Q9NR96).
T1 construct: host or cells: HEK-Blue cells
T1 sequence (Q9NR96 26-1032): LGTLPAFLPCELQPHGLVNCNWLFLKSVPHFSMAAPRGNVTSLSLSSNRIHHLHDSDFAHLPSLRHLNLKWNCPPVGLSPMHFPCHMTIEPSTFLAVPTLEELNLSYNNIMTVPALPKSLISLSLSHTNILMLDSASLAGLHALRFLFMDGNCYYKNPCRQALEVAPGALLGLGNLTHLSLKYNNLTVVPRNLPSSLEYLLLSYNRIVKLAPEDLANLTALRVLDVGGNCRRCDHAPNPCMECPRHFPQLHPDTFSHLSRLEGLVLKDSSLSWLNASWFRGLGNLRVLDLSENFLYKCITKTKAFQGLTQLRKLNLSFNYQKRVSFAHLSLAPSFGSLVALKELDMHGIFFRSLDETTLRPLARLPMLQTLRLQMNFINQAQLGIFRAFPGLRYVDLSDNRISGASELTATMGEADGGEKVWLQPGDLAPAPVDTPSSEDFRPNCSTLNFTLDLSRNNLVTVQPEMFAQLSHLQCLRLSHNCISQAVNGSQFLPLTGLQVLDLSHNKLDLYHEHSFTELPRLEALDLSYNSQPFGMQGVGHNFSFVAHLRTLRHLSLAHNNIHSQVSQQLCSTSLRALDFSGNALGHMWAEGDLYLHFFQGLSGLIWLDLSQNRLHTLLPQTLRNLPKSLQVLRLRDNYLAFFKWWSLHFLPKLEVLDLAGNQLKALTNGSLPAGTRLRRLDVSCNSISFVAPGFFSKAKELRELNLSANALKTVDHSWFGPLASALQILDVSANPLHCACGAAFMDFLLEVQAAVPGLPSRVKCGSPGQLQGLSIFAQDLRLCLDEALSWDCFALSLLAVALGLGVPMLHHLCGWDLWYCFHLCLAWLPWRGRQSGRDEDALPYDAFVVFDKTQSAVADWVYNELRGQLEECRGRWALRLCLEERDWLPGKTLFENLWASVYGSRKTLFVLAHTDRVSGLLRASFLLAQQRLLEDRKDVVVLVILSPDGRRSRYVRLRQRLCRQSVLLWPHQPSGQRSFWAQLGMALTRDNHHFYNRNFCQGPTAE
The experiment in a line: TLR9 inhibition reporter assay (HEK-Blue SEAP). It counts as cell-based. The settings on record: HEK-Blue cells overexpressing human TLR9, ODN2006 5 nM, 22 hour incubation. The method in brief:
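Screening used HEK-Blue cells overexpressing one human TLR (7, 8 or 9) and an IFN-β minimal promoter–NF-κB/AP-1 SEAP construct. Stimulation lasted 22 h at 37 °C with receptor-specific agonist: gardiquimod, R848 or ODN2006 at 7.5 μM, 15.9 μM and 5 nM.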
Background: In a reporter assay the amount or activity of a reporter protein is the signal.
As for `COCCN1CCC[C@@H](n2c(=O)[nH]c3cc(-c4cc(C)c5ncnn5c4)c(C)cc32)C1` [Example 97, (R)-1-(1-(2-methoxyethyl)piperidin-3-yl)-6-methyl-5-(8-methyl-[1,2,4]triazolo[1,5-a]pyridin-6-yl)-1,3-dihydro-2H-benzo[d]imidazol-2-one], half-maximal inhibition (IC50) required 19.1 µM.
Then `COc1cc(-c2cc3[nH]c(=O)n([C@@H]4CCCN(CC5CCC5)C4)c3cc2C(C)C)cn2ncnc12` [Example 140, (R)-1-(1-(cyclobutylmethyl)piperidin-3-yl)-6-isopropyl-5-(8-methoxy-[1,2,4]triazolo[1,5-a]pyridin-6-yl)-1,3-dihydro-2H-benzo[d]imidazol-2-one], with 6.46 µM; and `CCCN(CCC)[C@H]1CC[C@@H](n2c(=O)[nH]c3cc(-c4cc(OC)c5ncnn5c4)c(CC)cc32)CC1` [Example 168, 1-((1s,4s)-4-(dipropylamino)cyclohexyl)-6-ethyl-5-(8-methoxy-[1,2,4]triazolo[1,5-a]pyridin-6-yl)-1,3-dihydro-2H-benzo[d]imidazol-2-one], with 15.2 µM.
For `Cc1cc2c(cc1-c1cc(C)c3ncnn3c1)[nH]c(=O)n2[C@@H]1CCCN(CC(=O)N(C)C)C1` [Example 95, (R)—N,N-dimethyl-2-(3-(6-methyl-5-(8-methyl-[1,2,4]triazolo[1,5-a]pyridin-6-yl)-2-oxo-2,3-dihydro-1H-benzo[d]imidazol-1-yl)piperidin-1-yl)acetamide], the IC50 turned out to be 14.6 µM.
Molecule `CCCN1CCC[C@H](n2c(=O)[nH]c3cc(-c4cc(OC)c5ncnn5c4)c(C(C)C)cc32)C1` [Example 121, (S)-6-isopropyl-5-(8-methoxy-[1,2,4]triazolo[1,5-a]pyridin-6-yl)-1-(1-propylpiperidin-3-yl)-1,3-dihydro-2H-benzo[d]imidazol-2-one] gave an IC50 of 13.6 µM.
In the case of `COc1cc(-c2cc3[nH]c(=O)n(C4CCN(C5CCC5)CC4)c3cc2C(C)C)cn2ncnc12` [Example 156, 1-(1-cyclobutylpiperidin-4-yl)-6-isopropyl-5-(8-methoxy-[1,2,4]triazolo[1,5-a]pyridin-6-yl)-1,3-dihydro-2H-benzo[d]imidazol-2-one], it took 23.8 µM to reach half-maximal inhibition (IC50).
As for `COc1cc(-c2cc3[nH]c(=O)n(C4CCN(CC5CCOCC5)CC4)c3cc2C(C)C)cn2ncnc12` [Example 159, 6-isopropyl-5-(8-methoxy-[1,2,4]triazolo[1,5-a]pyridin-6-yl)-1-(1-((tetrahydro-2H-pyran-4-yl)methyl)piperidin-4-yl)-1,3-dihydro-2H-benzo[d]imidazol-2-one], the half-inhibitory concentration (IC50) amounted to 7.25 µM.
In the case of `COc1cc(-c2cc3[nH]c(=O)n([C@@H]4CCCN(C)C4)c3cc2C(C)C)cn2ncnc12` [Example 136, (R)-6-isopropyl-5-(8-methoxy-[1,2,4]triazolo[1,5-a]pyridin-6-yl)-1-(1-methylpiperidin-3-yl)-1,3-dihydro-2H-benzo[d]imidazol-2-one], the IC50 amounted to 14.9 µM.
`COc1cc(-c2cc3[nH]c(=O)n([C@H]4CCCN(C(C)C)C4)c3cc2C(C)C)cn2ncnc12` [Example 120, (S)-6-isopropyl-1-(1-isopropylpiperidin-3-yl)-5-(8-methoxy-[1,2,4]triazolo[1,5-a]pyridin-6-yl)-1,3-dihydro-2H-benzo[d]imidazol-2-one] displayed a concentration for half-maximal inhibition (IC50) of 1.94 µM.
Then `Cc1cc2c(cc1-c1cc(C)c3ncnn3c1)[nH]c(=O)n2[C@@H]1CCCN(CC(N)=O)C1` [Example 94, (R)-2-(3-(6-methyl-5-(8-methyl-[1,2,4]triazolo[1,5-a]pyridin-6-yl)-2-oxo-2,3-dihydro-1H-benzo[d]imidazol-1-yl)piperidin-1-yl)acetamide], with more than 50 µM.
The value for `Cc1c(-c2cc3[nH]c(=O)n([C@@H]4CCCN(C)C4)c3cc2C(C)C)cn2ncnc2c1C` [Example 147, (R)-5-(7,8-dimethyl-[1,2,4]triazolo[1,5-a]pyridin-6-yl)-6-isopropyl-1-(1-methylpiperidin-3-yl)-1,3-dihydro-2H-benzo[d]imidazol-2-one] was more than 50 µM; that for `COc1cc(-c2cc3[nH]c(=O)n([C@@H]4CCCN(C5CCOCC5)C4)c3cc2C(C)C)cn2ncnc12` [Example 143, (R)-6-isopropyl-5-(8-methoxy-[1,2,4]triazolo[1,5-a]pyridin-6-yl)-1-(1-(tetrahydro-2H-pyran-4-yl)piperidin-3-yl)-1,3-dihydro-2H-benzo[d]imidazol-2-one] was 10.2 µM.
`Cc1c(-c2cc3[nH]c(=O)n([C@@H]4CCCN(CC5CCOCC5)C4)c3cc2C(C)C)cn2ncnc2c1C` [Example 149, (R)-5-(7,8-dimethyl-[1,2,4]triazolo[1,5-a]pyridin-6-yl)-6-isopropyl-1-(1-((tetrahydro-2H-pyran-4-yl)methyl)piperidin-3-yl)-1,3-dihydro-2H-benzo[d]imidazol-2-one] showed a concentration for half-maximal inhibition (IC50) of 15.7 µM.
The value for `COc1cc(-c2cc3[nH]c(=O)n(C4CCN(C(=O)CN(C)C)CC4)c3cc2C)cn2ncnc12` [Example 100, 1-(1-(2-(dimethylamino)acetyl)piperidin-4-yl)-5-(8-methoxy-[1,2,4]triazolo[1,5-a]pyridin-6-yl)-6-methyl-1H-benzo[d]imidazol-2(3H)-one] was 1.66 µM; that for `COc1cc(-c2cc3[nH]c(=O)n([C@@H]4CCCN(CC(C)C)C4)c3cc2C(C)C)cn2ncnc12` [Example 141, (R)-1-(1-isobutylpiperidin-3-yl)-6-isopropyl-5-(8-methoxy-[1,2,4]triazolo[1,5-a]pyridin-6-yl)-1,3-dihydro-2H-benzo[d]imidazol-2-one] was 3.88 µM.
The value for `Cc1c(-c2cc3[nH]c(=O)n([C@@H]4CCCN(C(C)C)C4)c3cc2C(C)C)cn2ncnc2c1C` [Example 145, (R)-5-(7,8-dimethyl-[1,2,4]triazolo[1,5-a]pyridin-6-yl)-6-isopropyl-1-(1-isopropylpiperidin-3-yl)-1,3-dihydro-2H-benzo[d]imidazol-2-one] was 14.3 µM; that for `COc1cc(-c2cc3[nH]c(=O)n(C4CCN(C(C)C)CC4)c3cc2C)cn2ncnc12` [Example 10, 1-(1-isopropylpiperidin-4-yl)-5-(8-methoxy-[1,2,4]triazolo[1,5-a]pyridin-6-yl)-6-methyl-1,3-dihydro-2H-benzo[d]imidazol-2-one] was 0.354 µM; that for `COc1cc(-c2cc3[nH]c(=O)n([C@H]4CCCN(C5CCOCC5)C4)c3cc2C(C)C)cn2ncnc12` [Example 124, (S)-6-isopropyl-5-(8-methoxy-[1,2,4]triazolo[1,5-a]pyridin-6-yl)-1-(1-(tetrahydro-2H-pyran-4-yl)piperidin-3-yl)-1,3-dihydro-2H-benzo[d]imidazol-2-one] was 20.8 µM.
`Cc1cc2c(cc1-c1cc(C)c3ncnn3c1)[nH]c(=O)n2C1CCN(C(=O)CN(C)C)CC1` [Example 101, 1-(1-(dimethylglycyl)piperidin-4-yl)-6-methyl-5-(8-methyl-[1,2,4]triazolo[1,5-a]pyridin-6-yl)-1,3-dihydro-2H-benzo[d]imidazol-2-one] had a half-maximal inhibitory concentration (IC50) of 2.58 µM.
The value for `COc1cc(-c2cc3[nH]c(=O)n([C@@H]4CCCN(C(C)C)C4)c3cc2C(C)C)cn2ncnc12` [Example 137, (R)-6-isopropyl-1-(1-isopropylpiperidin-3-yl)-5-(8-methoxy-[1,2,4]triazolo[1,5-a]pyridin-6-yl)-1,3-dihydro-2H-benzo[d]imidazol-2-one] was 7.07 µM.

The term IC50 denotes the midpoint of a concentration-inhibition curve. Read a low IC50 as greater potency in that assay.
